Measurements as given in ChEMBL document CHEMBL4270624, “Synthesis and antibacterial evaluation of 13-substituted cycloberberine derivatives as a novel class of anti-MRSA agents” (Eur J Med Chem, 2018).

Legend:
[1] = tested on: Staphylococcus aureus; assay: Antibacterial activity against methicillin-sensitive Staphylococcus aureus ATCC 29213 after 18 hrs by agar dilution method; format: functional; conditions: ATCC 29213, 18 h
[2] = tested on: Staphylococcus aureus; assay: Antibacterial activity against methicillin-sensitive Staphylococcus aureus 16-1 clinical isolate after 18 hrs by agar dilution method; format: functional; conditions: 16-1, 18 h
[3] = tested on: Staphylococcus aureus; assay: Antibacterial activity against methicillin-resistant Staphylococcus aureus ATCC 33591 after 18 hrs by agar dilution method; format: functional; conditions: ATCC 33591, 18 h
[4] = tested on: Staphylococcus aureus; assay: Antibacterial activity against methicillin-resistant Staphylococcus aureus ATCC 43300 after 18 hrs by agar dilution method; format: functional; conditions: ATCC 43300, 18 h
[5] = tested on: Staphylococcus aureus; assay: Antibacterial activity against methicillin-resistant Staphylococcus aureus ATCC BAA-976 after 18 hrs by agar dilution method; format: functional; conditions: ATCC BAA-976, 18 h
[6] = tested on: Staphylococcus aureus; assay: Antibacterial activity against methicillin-resistant Staphylococcus aureus ATCC BAA-1708 after 18 hrs by agar dilution method; format: functional; conditions: ATCC BAA-1708, 18 h
[7] = tested on: Staphylococcus aureus; assay: Antibacterial activity against methicillin-resistant Staphylococcus aureus 13-18 clinical isolate after 18 hrs by agar dilution method; format: functional; conditions: 13-18, 18 h
[8] = tested on: Staphylococcus aureus; assay: Antibacterial activity against methicillin-resistant Staphylococcus aureus 13-23 clinical isolate after 18 hrs by agar dilution method; format: functional; conditions: 13-23, 18 h
[9] = tested on: Staphylococcus aureus; assay: Antibacterial activity against methicillin-resistant Staphylococcus aureus 16-30 clinical isolate after 18 hrs by agar dilution method; format: functional; conditions: 16-30, 18 h
[10] = tested on: Staphylococcus aureus; assay: Antibacterial activity against methicillin-resistant Staphylococcus aureus 16-34 clinical isolate after 18 hrs by agar dilution method; format: functional; conditions: 16-34, 18 h
[11] = Stability of the compound in Sprague-Dawley rat whole blood assessed as parent compound remaining after 1 hr by LC-MS/MS analysis; format: ADME, tissue-based; conditions: read-out: Stability
[12] = Stability of the compound in Sprague-Dawley rat whole blood assessed as parent compound remaining after 24 hrs by LC-MS/MS analysis; format: ADME, tissue-based; conditions: read-out: Stability
[13] = AUC (0 to t) in Sprague-Dawley rat at 1 mg/kg, iv administered as single dose; format: ADME, organism-based; conditions: in vivo
[14] = Mean residence time (0 to t) in Sprague-Dawley rat at 1 mg/kg, iv administered as single dose; format: ADME, organism-based; conditions: in vivo
[15] = Half life in Sprague-Dawley rat at 1 mg/kg, iv administered as single dose; format: ADME, organism-based; conditions: in vivo
[16] = Cmax in Sprague-Dawley rat at 5 mg/kg, po administered as single dose; format: ADME, organism-based; design: dose 5 mg/kg, route oral; conditions: in vivo
[17] = Tmax in Sprague-Dawley rat at 5 mg/kg, po administered as single dose; format: ADME, organism-based; conditions: in vivo
[18] = AUC (0 to t) in Sprague-Dawley rat at 5 mg/kg, po administered as single dose; format: ADME, organism-based; conditions: in vivo
[19] = Mean residence time (0 to t) in Sprague-Dawley rat at 5 mg/kg, po administered as single dose; format: ADME, organism-based; conditions: in vivo
[20] = Half life in Sprague-Dawley rat at 5 mg/kg, po administered as single dose; format: ADME, organism-based; conditions: in vivo
[21] = Oral bioavailability in Sprague-Dawley rat at 5 mg/kg administered as single dose; format: ADME, organism-based; conditions: in vivo
[22] = Toxicity in iv dosed Kunming mouse administered as single dose measured for 7 days; format: organism-based; conditions: in vivo
[23] = Stability of the compound in Sprague-Dawley rat whole blood assessed as parent compound remaining after 0.5 hrs by LC-MS/MS analysis; format: ADME, tissue-based; conditions: read-out: Stability

**Q.** Which MIC [1] does the source give for `COc1ccc2c(c[n+]3c4c2cc(Cc2ccccc2C)c2c5c(cc(c24)CC3)OCO5)c1OC.[Br-]` here?
**A.** 4 µg/mL

**Q.** What about the MIC [2] of the same molecule?
**A.** 2 µg/mL

**Q.** And the MIC [3]?
**A.** 2 µg/mL

**Q.** And the MIC [4]?
**A.** 2 µg/mL

**Q.** What about the MIC [5] of the same molecule?
**A.** 1 µg/mL

**Q.** And the MIC [6]?
**A.** 2 µg/mL

**Q.** And the MIC [7]?
**A.** 2 µg/mL

**Q.** What about the MIC [8] of the same molecule?
**A.** 2 µg/mL

**Q.** And the MIC [9]?
**A.** 4 µg/mL

**Q.** What about the MIC [10] of the same molecule?
**A.** 2 µg/mL

**Q.** And the remaining at 1 h [11]?
**A.** 94.2%

**Q.** What about the remaining at 24 h [12] of the same molecule?
**A.** 80.9%

**Q.** What about the AUC(0-t) [13] of the same molecule?
**A.** 724 ng·h/mL

**Q.** What about the MRT last [14] of the same molecule?
**A.** 4.3 h

**Q.** What about the half-life [15] of the same molecule?
**A.** 7.2 h

**Q.** What about the Cmax [16] of the same molecule?
**A.** 11.7 ng/mL

**Q.** What about the Tmax [17] of the same molecule?
**A.** 1 h

**Q.** And the AUC(0-t) [18]?
**A.** 28.3 ng·h/mL

**Q.** And the MRT last [19]?
**A.** 2.1 h

**Q.** What about the half-life [20] of the same molecule?
**A.** 1.5 h

**Q.** What about the bioavailability [21] of the same molecule?
**A.** 0.8%

**Q.** What about the LD50 at 168 h [22] of the same molecule?
**A.** 65.6 mg/kg

**Q.** Which remaining at 0.5 h [23] does the source give for `CCOC(=O)[C@H](CCc1ccccc1)N[C@@H](C)C(=O)N1CCC[C@H]1C(=O)O` [ENALAPRIL] here?
**A.** 42.9%

**Q.** And the remaining at 1 h [11]?
**A.** 10.9%
